Measured values as given in patent US8436004B2, “Bicycloaniline derivative” (MSD K.K., priority 2007, dated 2013).
Counter-ions that a name gives are not always drawn.

Assays:
Wee1 kinase = target: T1, Wee1 kinase (Homo sapiens, UniProt P30291); assay: Wee1 kinase-inhibitory effect (33P-ATP, Poly(Lys,Tyr) substrate, filter assay); format: biochemical; details: 10 μM ATP, 30° C., 30 minutes
T1 construct: made in house; host or cells: Sf9 insect cells (recombinant baculovirus)
Text: Pharmacological Test 1 (Wee1 Kinase-Inhibitory Effect)
(1) Purification of Wee1 Kinase:
A cDNA of Wee1 kinase with […] (GST) fused at the amino terminal thereof was inserted into a baculovirus expression vector to construct a recombinant baculovirus, with which cells of an insect cell line Sf9 were infected for high expression therein. The infected cells were recovered and solubilized, and then the GST-tagged Wee1 kinase protein was adsorbed by a glutathion column, and eluted from the column with glutathion, and the active fraction was desalted in a desalting column to give a purified enzyme.
(2) Determination of Wee1 Kinase Activity:
In determination of the Wee1 kinase activity, a synthetic peptide, Poly(Lys,Tyr) Hydrobromide (Lys:Tyr (4:1)) bought from Sigma was used as the substrate.
The amount of the reaction liquid was 21.1 μL; and the composition of the reaction buffer was 50 mM Tris-HCl buffer (pH 7.4)/10 mM magnesium chloride/1 mM dithiothreitol. The purified Wee1 kinase, 2.5 μg of the substrate peptide, 10 μM of non-labeled adenosine triphosphate (ATP) and 1 μCi of [γ-^33P]-labeled ATP (2500 Ci/mmol or more) were added to it, and reacted at 30° C. for 30 minutes. Next, 10 μL of 350 mM phosphate buffer was added to the reaction system to stop the reaction. The substrate peptide was adsorbed by a P81 paper filter 96-well plate, then washed a few times with 130 mM phosphate buffer, and its radioactivity was counted with a liquid scintillation counter. The [γ-^33P]-labeled ATP was bought from Amersham Bioscience.
To add the test compound to the reaction system, the compound was diluted with dimethylsulfoxide (DMSO) to prepare a series of dilutions. 1.1 μL of each dilution was added to the reaction system. As a control, 1.1 μL of DMSO was added to the reaction system.

[1] = tested on: Cdc2 (Cdk1) tyrosine 15-phosphorylation in NCI-H1299 cells; assay: Cdc2 (Cdk1) tyrosine 15-phosphorylation-inhibitory effect in camptothecin-treated NCI-H1299 cells (ELISA); format: cell-based; details: Homo sapiens; NCI-H1299, camptothecin 200 nM 16 hours, then test compound + nocodazole 8 hours; read-out: Cdc2-Y15 Phosphorylation-Inhibitory Effect (H1299, + camptothecin) (EC50)
Text: Pharmacological Test 2 (Method of Determining Drug Potency with Cells (Cdc2 (Cdk1) Tyrosine 15-Phosphorylation-Inhibitory Effect))
Fetal bovine serum (FBS) was obtained from Morgate; media RPMI1640 and DMEM were from Invitrogen; camptothecin was from Sigma; gemcitabine was from Nippon Eli Lilly; nocodazole and protease inhibitor cocktail were from Sigma; rabbit anti-Cdc2 antibody and mouse anti-Cdc2 antibody were from Santa Cruz Biotechnology; rabbit anti-tyrosine 15-phosphorylated Cdc2 antibody and horseradish peroxidase-labeled anti-mouse IgG antibody were from Cell Signaling Technology; sure blue reserve TMB peroxidase substrate was from Kirkegaard and Perry Laboratories.
Human non-small cell lung cancer cells (NCI-H1299) and human colon cancer cells (WiDr) were obtained from American Type Culture Collection (ATCC).
In the method of using NCI-H1299 cells, the cells were suspended in a medium of 10% FBS-added RPMI1640, and the cell suspension was applied to a 96-well Nunclondelta-processed plastic plate (bought from Nunc), in an amount of 2000 cells/100 μL/well, in which the cells were incubated overnight in 5% CO2-95% air at 37° C. Camptothecin was dissolved in dimethylsulfoxide (DMSO), and diluted with a medium of 10% FBS-added RPMI1640, and then this was applied to the plate on which the cells had been previously sowed, in an amount of 50 μL/well in such a manner that the final concentration of camptothecin could be 200 nM. Then, the cells were incubated for 16 hours at 37° C. in 5% CO2-95% air. The test compound was stepwise diluted with DMSO, then diluted with 4000 nM nocodazole-containing, 10% FBS-added RPMI1640, and applied to the plate on which the camptothecin-treated cells had been sowed, in an amount of 50 μL/well. The cells were incubated for 8 hours at 37° C. in 5% CO2-95% air, then the culture was removed, and a cytolytic buffer was added to the plate in an amount of 100 μL/well, shaken at 4° C. for 2 hours, then frozen at −80° C., and thawed to give a cell solution. Cdc2 and tyrosine 15-phosphorylated Cdc2 in the cell solution were determined through enzyme-linked immunosorbent assay (ELISA), and the ratio of tyrosine 15-phosphorylated Cdc2 to Cdc2 was calculated to obtain the 50% phosphorylation-inhibitory concentration of the test compound to the cells (EC50, nM). The cytolytic buffer used herein is an aqueous solution containing 20 mM Hepes (pH 7.5), 150 mM sodium chloride, 1 mM disodium ethylenediaminetetraacetate, 0.1% polyoxyethylene (10) octylphenyl ether, 1% protease inhibitor cocktail, 1 mM dithiothreitol, 2 mM sodium orthovanadate, 10 mM sodium fluoride and 10 mM glycerol diphosphate. Cdc2 was determined through ELISA as follows: A rabbit anti-Cdc2 antibody solution, which had been diluted 200-fold with 50 mM carbonate-bicarbonate buffer (pH 9.6), was applied to a 96-well maxisorpimmuno plate (bought from Nunc), in an amount of 50 μL/well, and statically kept overnight at 4° C. so as to fix the antibody on the plate. Next, this was washed three times with phosphate-buffered physiological saline (PBS), and 5% bovine serum albumin-containing PBS (5% BSA/PBS) was added thereto in an amount of 300 μL/well, and statically kept at room temperature for 2 hours, and then again washed three times with PBS. A mouse anti-Cdc2 antibody solution that had been diluted 100-fold with 0.05% polyoxyethylene sorbitan monolaurate and 1% BSA-containing Tris-HCl-buffered physiological saline (1% BSA/TBS-T) was added to it in an amount of 50 μL/well, and the cell solution was added thereto in an amount of 5 μL/well and statically kept overnight at 4° C. Next, this was washed three times with 0.05% polyoxyethylene sorbitan monolaurate and 0.1% BSA-containing Tris-HCl-buffered physiological saline (0.1% BSA/TBS-T), and then a horseradish peroxidase-labeled anti-mouse IgG antibody solution that had been diluted 2000-fold with 1% BSA/TBS-T was added thereto in an amount of 70 μL/well, and statically kept at room temperature for 3 hours. […]

T1 sequence (P30291 whole entry): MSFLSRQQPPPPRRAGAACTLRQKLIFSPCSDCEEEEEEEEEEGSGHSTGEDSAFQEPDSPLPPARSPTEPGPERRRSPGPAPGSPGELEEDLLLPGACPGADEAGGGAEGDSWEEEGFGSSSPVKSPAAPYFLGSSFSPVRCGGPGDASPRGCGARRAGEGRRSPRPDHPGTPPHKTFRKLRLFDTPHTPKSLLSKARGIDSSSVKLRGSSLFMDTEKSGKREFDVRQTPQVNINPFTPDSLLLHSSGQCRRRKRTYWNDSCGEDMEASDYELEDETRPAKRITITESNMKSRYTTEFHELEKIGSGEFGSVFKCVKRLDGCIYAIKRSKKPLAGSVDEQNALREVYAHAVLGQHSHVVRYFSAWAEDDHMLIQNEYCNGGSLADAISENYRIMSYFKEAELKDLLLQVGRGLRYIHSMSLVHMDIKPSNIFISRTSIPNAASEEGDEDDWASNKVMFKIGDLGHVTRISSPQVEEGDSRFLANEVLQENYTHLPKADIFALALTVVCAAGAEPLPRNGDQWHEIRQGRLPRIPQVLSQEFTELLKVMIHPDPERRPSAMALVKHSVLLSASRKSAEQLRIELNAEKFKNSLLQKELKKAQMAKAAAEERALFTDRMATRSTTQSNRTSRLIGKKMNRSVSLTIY

IC50 (Wee1 kinase) | EC50 [1] | Structure (SMILES)
5 nM | 19 nM | CN1Cc2cc(Nc3ncc4c(=N)n(-c5c(Cl)cccc5Cl)c(=O)[nH]c4n3)ccc2C2(CC2)C1 [Example 1, 3-(2,6-dichlorophenyl)-4-imino-7-[(2′-methyl-2′,3′-dihydro-1′H-spiro[cyclopropane-1,4′-isoquinolin]-7′-yl)amino]-3,4-dihydropyrimido[4,5-d]pyrimidin-2(1H)-one dihydrochloride]
5.6 nM | 27 nM | CN1Cc2cc(Nc3ncc4c(=N)n(-c5c(Cl)cccc5Cl)c(=O)[nH]c4n3)ccc2C(C)(C)C1 [Example 2, 3-(2,6-dichlorophenyl)-4-imino-7-{[2,4,4-trimethyl-1,2,3,4-tetrahydroisoquinolin-7-yl]amino}-3,4-dihydropyrimido[4,5-d]pyrimidin-2(1H)-one]
4.3 nM | 17 nM | CN1Cc2cc(Nc3ncc4c(=N)n(-c5c(Cl)cccc5Cl)c(=O)[nH]c4n3)ccc2C1(C)C [Example 7, 3-(2,6-dichlorophenyl)-4-imino-7-[(1,1,2-trimethyl-2,3-dihydro-1H-isoindol-5-yl)amino]-3,4-dihydropyrimido[4,5-d]pyrimidin-2(1H)-one]
